Assay results reported in US9394352B2, “Immunogenic POTE peptides and methods of use” (The United States of America, as represented by the …, priority 2010, dated 2016).

Experiments:
[1] = test system: IFN-γ secreting spleen cells; assay: ex vivo IFN-γ ELISPOT assay on splenocytes of peptide-immunized AAD mice; type: in vivo; details: AAD mice immunized s.c., splenocytes pooled from three mice two weeks after boost
Experimental: (§1) FIGS. 3A and 3B are graphs showing immunogenicity of the wild type and enhanced POTE 252 epitopes in AAD mice. AAD mice were immunized subcutaneously with a mixture of peptide and cytokines in adjuvant as described in Example 1. (FIG. 3A) Two weeks after the second boost, splenocytes pooled from three mice were restimulated with splenocytes of naïve AAD mice pulsed with 1.0 μM of each peptide at different effector to target (E/T) ratios. Cells were cultured in anti-mouse IFN-γ antibody coated ELISPOT™ plates. After overnight culture, biotinylated anti-mouse IFN-γ antibodies were added to each well. ELISPOT™ substrates were added to develop the color and spots were counted by an ELISPOT™ reader (AID ELISPOT™ reader system). Figures show numbers of spots per million cells. (FIG. 3B) CTL cross-reactivity on each peptide. Two weeks after the second boost, pooled spleen cells from three mice were restimulated with irradiated splenocytes pulsed with 1.0 μM of peptide for 7 days. In a 4-hour ^51Cr release assay, CIR.AAD cells were pulsed with 1.0 μM of peptide and labeled with ^51Cr. After washing three times, target cells were mixed with different numbers of effector cells and then cultured for 4 hours before harvesting.
(§2) FIGS. 4A-4D are graphs showing immunogenicity of the wild type and enhanced POTE 553 epitopes in AAD mice. AAD mice were immunized subcutaneously with a mixture of peptide and cytokines in adjuvant. (FIGS. 4A and 4B) Two weeks after the second boost, splenocytes pooled from three mice were restimulated with splenocytes of naïve AAD mice pulsed with 10 nM to 1.0 μM of each peptide at different E/T ratios. Cells were cultured in anti-mouse IFN-γ antibody coated ELISPOT™ plates. After overnight culture, biotinylated anti-mouse IFN-γ antibodies were added to each well. ELISPOT™ substrates were added to develop color and spots were counted by an ELISPOT™ reader (AID ELISPOT™ reader system). Figures show numbers of spots per million cells. (FIGS. 4C and 4D) CTL cross-reactivity on each peptide. Two weeks after the second boost, pooled spleen cells from three mice were restimulated with irradiated splenocytes pulsed with 1.0 μM of peptide for 7 days. In a 4-hour ^51Cr release assay, CIR.AAD cells were pulsed with 1.0 μM of peptide and labeled with ^51Cr. After washing three times, target cells were mixed with different numbers of effector cells and then cultured for 4 hours before harvesting.
(§3) FIGS. 5A and 5B are graphs showing immunogenicity of the POTE 272 epitope in AAD mice. AAD mice were immunized subcutaneously with a mixture of peptide and cytokines in adjuvant. (FIG. 5A) Two weeks after the second boost, splenocytes pooled from three mice were restimulated with splenocytes of naïve AAD mice pulsed with 1.0 μM POTE 272 peptide at different E/T ratios. Cells were cultured in anti-mouse IFN-γ antibody coated ELISPOT™ plates. After overnight culture, biotinylated anti-mouse IFN-γ antibodies were added in each well. ELISPOT™ substrates were added to develop color and spots were counted by an ELISPOT™ reader (AID ELISPOT™ reader system). Figures show numbers of spots per million cells. (FIG. 5B) CTL reactivity on POTE 272 peptide. Two weeks after the second boost, pooled spleen cells from three mice were restimulated with irradiated splenocytes pulsed with 1.0 μM POTE 272 peptide for 7 days. In a 4-hour ^51Cr release assay, CIR.AAD cells were pulsed with 1.0 μM POTE 272 peptide and labeled with ^51Cr. After washing three times, target cells were mixed with different numbers of effector cells and then cultured for 4 hours before harvesting.
(§4) FIGS. 6A and 6B are graphs showing immunogenicity of the wild type and enhanced POTE 323 epitopes in AAD mice. AAD mice were immunized subcutaneously with a mixture of peptide and cytokines in adjuvant. (FIG. 6A) Two weeks after the second boost, splenocytes pooled from three mice were restimulated with splenocytes of naïve AAD mice pulsed with 1.0 μM of each peptide at different E/T ratios. […]

[2] = test system: C1R.AAD cells pulsed with peptide; assay: 4-hour 51Cr release CTL assay after one week in vitro stimulation; type: cell-based, human; details: CTLs from immunized AAD mice, restimulated 7 days with 1.0 μM peptide; targets pulsed with 1.0 μM peptide
Experimental: as §1, §2, §3, §4

[3] = test system: HLA-A2/POTE252 tetramer; assay: HLA-A2/peptide tetramer stain and TCR Vβ repertoire of CTLs from immunized HHD-2 mice; type: in vivo; details: after 1-week in vitro stimulation with cognate peptide
Experimental: FIGS. 7A-7C are FACS plots showing HLA-A2/peptide tetramer staining and T cell receptor (TCR) repertoire determination for POTE 252- and POTE 252-9V-induced CTLs. HHD-2 mice were immunized subcutaneously with a mixture of peptide and cytokines in adjuvant. Two weeks after the second boost, pooled spleen cells from three mice were restimulated with irradiated splenocytes pulsed with 1.0 μM of peptide for 1 week. (FIG. 7A) Percentage of the HLA-A2/POTE252 tetramer-positive cells in the POTE 252- and POTE 252-9V-induced CTLs. (FIG. 7B) TCR Vβ repertoires of the tetramer^+CD8^+ T cells in POTE 252-induced CTLs. (FIG. 7C) TCR Vβ repertoires of the tetramer^+CD8^+ T cells in POTE 252-9V-induced CTLs.
AAD or HHD-2 mice were immunized subcutaneously (s.c.) in the base of the tail with 100 μl of an emulsion containing 1:1 incomplete Freund's adjuvant (Sigma) and PBS with peptides and cytokines (50 nmol of CTL epitope, 50 nmol of hepatitis B virus core 128-140 helper epitope, 5 μg of mouse interleukin-12, and 5 μg of mouse granulocyte macrophage colony-stimulating factor). Cytokines were purchased from Peprotech (Rocky Hill, N.J.). Mice were boosted 2 weeks later, and the spleens were removed 2 weeks after the boost. For all experiments, groups of three mice were used. […]

KLMAKALLL [POTE 252-260, unmodified 9-mer peptide, residues 252-260 of human POTE]
IFN-γ response (ELISPOT spots) on stimulation with the immunizing peptide [1]: induced a significant number of IFN-γ spots
CTL lysis of peptide-pulsed target cells [2]: lysed target cells pulsed with the wild-type POTE 252 as well as POTE 252-9V
tetramer-positive CD8+ T cells [3]: 9.3%
